# Patent publication US9474744B2, “Beta-lactam compounds for treating diabetes” (STEM CELL MEDICINE LTD., priority 2011, dated 2016)
# B1: Penicillin-modified rat albumin: rat albumin modified with penicillin (conjugate, UniProt P02770 25-608, looked up)
# Albumin: EAHKSEIAHRFKDLGEQHFKGLVLIAFSQYLQKCPYEEHIKLVQEVTDFAKTCVADENAENCDKSIHTLFGDKLCAIPKLRDNYGELADCCAKQEPERNECFLQHKDDNPNLPPFQRPEAEAMCTSFQENPTSFLGHYLHEVARRHPYFYAPELLYYAEKYNEVLTQCCTESDKAACLTPKLDAVKEKALVAAVRQRMKCSSMQRFGERAFKAWAVARMSQRFPNAEFAEITKLATDVTKINKECCHGDLLECADDRAELAKYMCENQATISSKLQACCDKPVLQKSQCLAEIEHDNIPADLPSIAADFVEDKEVCKNYAEAKDVFLGTFLYEYSRRHPDYSVSLLLRLAKKYEATLEKCCAEGDPPACYGTVLAEFQPLVEEPKNLVKTNCELYEKLGEYGFQNAVLVRYTQKAPQVSTPTLVEAARNLGRVGTKCCTLPEAQRLPCVEDYLSAILNRLCVLHEKTPVSEKVTKCCSGSLVERRPCFSALTVDETYVPKEFKAETFTFHSDICTLPDKEKQIKKQTALAELVKHKPKATEDQLKTVMGDFAQFVDKCCKAADKDNCFATEGPNLVARSKEALA
# modifications: penicillin-modified
# Experiments:
# [1] = test system: encephalitogenic BP10 line; assay: Adoptive EAE: BP10 T-cell line stimulated in vitro with test substance, then injected into naive rats; type: in vivo, rat
# Experimental: Antigen-specific T-cell lines were established from lymph node cells that had been stimulated with myelin basic protein (MBP; 10 μg/ml) for 3 days in stimulation medium as described below. Following stimulation, the T-cell blasts were isolated on LYMPHOPREP™ (Nycomed Pharma, Oslo, Norway) and seeded in propagation medium. Propagation medium was identical to stimulation medium without autologous serum, but supplemented with fetal calf serum 10% and T-cell growth factors from the supernatant of Con A stimulated spleen cells 10% (Mor et al. (1990) J Clin Invest, 85, 1594-1598). Animals were injected intra-peritoneally with 107 MBP-stimulated T cells, following 6-8 cycles of in vitro stimulations. It is known that MBP-reactive lines undergo a reduction in pathogenicity after 6 or more in vitro stimulations. In some experiments the BP10 line was stimulated with phorbol myristate acetate (PMA; 50 ng/ml) and ionomycin (500 ng/ml) for 3 days in stimulation medium, without antigen-presenting cells.
# Active EAE was induced by subcutaneous injection of 25 μg guinea-pig MBP (GpMBP) in complete Freund's adjuvant (CFA). […] Adoptive EAE was transferred by intra-peritoneal injection of guinea-pig MBP-activated cells of the BP10 line as described in Mor et al. (1993) J Clin Invest, 92, 2199-2206. […] Clinical scoring was: +1, paralysis of tail; +1.5, paresis of posterior paws and ataxia; +2, paraplegia; +3, paralysis extending to thoracic spine; +4, a moribund state.
# Treatment with cefuroxime in vivo could affect many different host agents involved in EAE or AA as well as influencing the rats' bacterial flora. To test whether the antibiotic might directly modify the behavior of effector T cells, an encephalitogenic T-cell line was stimulated in the presence or absence of cefuroxime in vitro. The weakly encephalitogenic BP10 line was used, and was stimulated for 3 days with MBP in the presence or absence of cefuroxime (50 μg/ml). The activated T cells were then washed to remove the antibiotic, the T cells were injected intra-peritoneally into naïve recipient rats (10^7 per rat), and EAE was scored. The BP10 line at later stimulations was used, when its pathogenic potential is reduced, allowing to detect both suppression and enhancement of disease. […] To rule out antigen presenting cells (APC) as the target of the beta-lactam antibiotic, the encephalitogenic BP10 line was stimulated without APC using PMA (50 ng/ml) and Ionomycin (500 ng/ml) in the presence or absence of cefuroxime.
# Additional beta-lactam antibiotics were tested for their effect on the adoptive transfer of EAE.
# A control group was injected with the untreated line.
# NOD mice = assay: Development of autoimmune diabetes in NOD mice; type: in vivo, mouse; settings: at 5.7 months; s.c. at weekly intervals, ampicillin 1300 μg or ceftriaxone 675 μg per mouse; blood sugar above 300 mg/dl on 2 measurements; control 60%
# Source text: Inbred female Lewis rats and NOD (non-obese diabetic) mice were supplied by the animal breeding center of the Weizmann Institute of Science, Israel, under the supervision of Harlan Laboratories and were used at 2-3 months of age. Experiments were approved by the Institutional Animal Care and Use Committee. Human peripheral blood lymphocytes from healthy donors were obtained from the blood bank of Sheba Medical Center, Tel Hashomer, Israel.
# NOD mice spontaneously develop diabetes mellitus similar to type I diabetes in humans. […] The mice were followed for the development of diabetes, marked by blood sugar above 300 mg/dl on 2 measurements.
# [2] = molecular target: T1, 67 kDa protein of human CD4 and CD8 T cells (identified as albumin) (Homo sapiens, UniProt P02768); assay: Radioactive penicillin binding assay; settings: 10 and 20 μCi tritium-labeled, 3 days with PMA and Ionomycin; SDS-PAGE autoradiography
# T1 construct: endogenous in cells; host or cells: primary human peripheral-blood T cells (CD3+, CD4+ or CD8+) from healthy donors
# T1 sequence (P02768 25-609): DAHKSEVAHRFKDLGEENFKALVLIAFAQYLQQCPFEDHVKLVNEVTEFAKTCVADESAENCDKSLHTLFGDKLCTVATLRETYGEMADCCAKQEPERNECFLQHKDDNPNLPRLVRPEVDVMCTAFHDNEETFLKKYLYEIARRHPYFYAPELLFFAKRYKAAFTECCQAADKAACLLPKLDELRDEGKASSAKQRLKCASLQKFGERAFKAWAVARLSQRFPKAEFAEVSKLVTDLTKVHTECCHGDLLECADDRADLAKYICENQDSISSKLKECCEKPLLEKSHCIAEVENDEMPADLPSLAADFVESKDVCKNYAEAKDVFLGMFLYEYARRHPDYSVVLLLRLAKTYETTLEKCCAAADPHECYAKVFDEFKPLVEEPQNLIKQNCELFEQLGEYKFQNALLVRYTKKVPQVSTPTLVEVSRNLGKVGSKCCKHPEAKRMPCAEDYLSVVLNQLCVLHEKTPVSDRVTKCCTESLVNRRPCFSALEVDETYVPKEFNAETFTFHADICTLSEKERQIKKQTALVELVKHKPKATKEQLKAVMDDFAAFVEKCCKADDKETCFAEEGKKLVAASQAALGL
# Source text: Tritium labeled benzylpenicillin was obtained from Amersham (Buckinghamshire, UK; 250 μCi, 1 mCi/ml). Human CD4 or CD8 T cells were stimulated in 24 well plates, 5×10^6 cells per ml, with PMA and Ionomycin for 72 hr in the presence of 10 or 20 μCi of labeled penicillin. Following stimulation, the cells were collected, lysed and separated by SDS PAGE. The gels were fixed, treated with 1M sodium salicylate, and dried. The dried gels were exposed to x-ray film (BioMax MS film) for 14 days, with intensifying screen (BioMax TranScreen, Eastman Kodak Co., New Haven Conn., USA), and were developed.
# To test whether beta-lactam antibiotics might affect T-cell behavior likewise by covalently binding a key T-cell protein, purified CD4 or CD8 human T cells were incubated with 10 and 20 μCi of tritium-labeled lactam benzylpenicillin (Amersham, Buckinghamshire, UK) for 3 days during stimulation with PMA and Ionomycin. The stimulated T cells were collected, washed, lysed and their proteins were subjected to SDS-PAGE separation. Dried gels were exposed in intensifying screens to Xray film for 2 weeks at −80° C. […] The intensity of the band was stronger at the 20 μCi concentration of penicillin.
# albumin = molecular target: T2, albumin (Rattus norvegicus, UniProt P02770); assay: Pen 9 western blot of rat tissue lysates after intraperitoneal penicillin G; type: in vivo; settings: Lewis rats, 50 mg/rat intraperitoneally, 2 hours later
# T2 construct: Rat tissues were ground with a tissue grinder in lysis buffer; from tissue; host or cells: various tissue lysates and serum of Lewis rats, 2 hours after i.p. penicillin G
# Experimental: Rat tissues were ground with a tissue grinder in lysis buffer. The homogenate was centrifuged 14000 g for 15 min in 4° C. and the supernatant was used for western blotting. The protein concentration was determined using the BIO-RAD DC™ protein assay (Bio-Rad laboratories, Hercules, Calif.). Following electrophoresis in SDS gel in a mini-gel apparatus (Bio-Rad), the gels were electro-transferred to nitrocellulose membranes (Schleicher and schuell, Dassel, Germany). The nitrocellulose membranes were washed with distilled water for 5 min, and then blocked for 60 min. using a blocking solution composed of 2% bovine serum albumin (Fraction V, Sigma, St. Louis Mo.), 2.5% milk powder (Bio-Rad), Tris (Sigma) pH 7.5 10 mM, NaCl 150 mM and 0.02% thimerosal (Sigma). After 3×10 min. washes in PBS/TWEEN® 20 (PBS/T; 0.02%, Sigma), primary antibodies (1/1000) were incubated with the membranes in PBS/TWEEN® for 60 min. Following another series of washes in PBS/T (3×10 min), the membranes were incubated with a secondary antibody (Peroxidase conjugated anti rabbit or anti mouse, IgG Jackson ImmunoResearch, West Grove, Calif.) at a 1/2500 dilution in 2% milk in PBS solution for 60 min. After another 3×10 min washes, the membranes were incubated with the ECL reagent (for 60 seconds) and exposed to X-ray film. […]
# [3] = free penicillin; cited from earlier work
# [4] = molecular target: T3, albumin of human CD3 T cells (Homo sapiens, UniProt P02768); assay: Western blot with Pen 9 antibody of antibiotic-treated human T cells; type: cell-based; settings: T cells activated by mitogen in presence of antibiotic
# T3 construct: endogenous in cells; host or cells: primary human peripheral-blood T cells (CD3+, CD4+ or CD8+) from healthy donors
# T3 sequence (P02768 25-609): as above
# Experimental: Rat tissues were ground with a tissue grinder in lysis buffer. The homogenate was centrifuged 14000 g for 15 min in 4° C. and the supernatant was used for western blotting. The protein concentration was determined using the BIO-RAD DC™ protein assay (Bio-Rad laboratories, Hercules, Calif.). Following electrophoresis in SDS gel in a mini-gel apparatus (Bio-Rad), the gels were electro-transferred to nitrocellulose membranes (Schleicher and schuell, Dassel, Germany). The nitrocellulose membranes were washed with distilled water for 5 min, and then blocked for 60 min. using a blocking solution composed of 2% bovine serum albumin (Fraction V, Sigma, St. Louis Mo.), 2.5% milk powder (Bio-Rad), Tris (Sigma) pH 7.5 10 mM, NaCl 150 mM and 0.02% thimerosal (Sigma). After 3×10 min. washes in PBS/TWEEN® 20 (PBS/T; 0.02%, Sigma), primary antibodies (1/1000) were incubated with the membranes in PBS/TWEEN® for 60 min. Following another series of washes in PBS/T (3×10 min), the membranes were incubated with a secondary antibody (Peroxidase conjugated anti rabbit or anti mouse, IgG Jackson ImmunoResearch, West Grove, Calif.) at a 1/2500 dilution in 2% milk in PBS solution for 60 min. After another 3×10 min washes, the membranes were incubated with the ECL reagent (for 60 seconds) and exposed to X-ray film.
molecule,measurement,setting,value
CO/N=C(\C(=O)N[C@@H]1C(=O)N2C(C(=O)O)=C(CSc3nc(=O)c(=O)[nH]n3C)CS[C@H]12)c1csc(N)n1 [ceftriaxone],severity of adoptive EAE in recipient rats,"[1]; BP10 line stimulated 3 days with MBP in presence of 50 μg/ml antibiotic, 10^7 cells per rat",enhanced EAE severity
same,incidence of diabetes,NOD mice,60%
"CC1(C)S[C@@H]2[C@H](NC(=O)Cc3ccccc3)C(=O)N2[C@H]1C(=O)O [penicillin, benzylpenicillin]",radioactive penicillin-protein band in T-cell lysates,[2],single major penicillin-protein radioactive band was detected at 67 kD
same,67 kD band representing penicilloylated albumin in tissue lysates,albumin,appears in all tissues examined and is most abundant in serum
same,half-life,[3],42 min
same,Pen 9 reactivity with lysates of antibiotic-treated T cells,[4],reacted specifically to a major protein of the penicillin-treated T cells
B1,severity of adoptive EAE mediated by the BP10 line,"[1]; BP10 line stimulated 3 days with 5 mg/ml in stimulation medium, control untreated line",could also enhance the encephalogenicity of the BP10 line
